Measured values as given in PMC11266932, “Enhanced absorption of prenylated cinnamic acid derivatives from Brazilian green propolis by turmeric in humans and rats” (Food Science & Nutrition, 2024).
Like-named read-outs stand apart in the source and are kept apart here.

Assays:
[1] = target: T1, multidrug resistance 1 (MDR1), P‐gp (Homo sapiens, UniProt P08183); test: Bidirectional transport assay across MDCK II-MDR1 cell monolayer; type: in vitro ADME; settings: for Net flux ratio: ER of MDCK II‐MDR1 divided by ER of parent MDCK II, >2 = transporter-mediated efflux
T1 construct: host or cells: MDCK II (Madin-Darby canine kidney) cells overexpressing MDR1
Method: The Madin‐Darby canine kidney (MDCK II) cell line and MDCK II cells overexpressing multidrug resistance 1 (MDR1) or breast cancer resistance protein (BCRP) were purchased from the Netherlands Cancer Institute (Amsterdam, Netherlands) and SOLVO Biotechnology (Szeged, Hungary), respectively. The cell lines were routinely cultured in Dulbecco's modified Eagle's medium (DMEM) containing 10% fetal bovine serum and 1% penicillin/streptomycin at 37°C in 5% CO2. All cells were seeded in a feeder tray at a density of 3–6 × 10^4 cells/well and grown for 3–4 days. On the day of the transport study, cell monolayers were washed with Hanks' balanced salt solution (HBSS) buffer containing 0.1% BSA (pH 7.4) and incubated at 37°C for 20 min. Artepillin C and drupanin dissolved in DMSO (10 mM) were added to the transport buffer (HBSS containing 10 mM HEPES, 0.2% glucose, 0.1% BSA, pH 7.4) to a final concentration of 10 μM and then loaded into the apical or basolateral chamber. After 120 min of incubation, 150 μL of the aliquots were collected from the donor and receiver chambers and mixed with an equal volume of 50% methanol. After centrifugation at 3000 rpm for 10 min at 4°C, the supernatants were filtered and subjected to LC–MS/MS analysis.
The in vitro samples were analyzed using HPLC (LC‐20A, Shimadzu, Kyoto, Japan) with a reversed‐phase column (Inertsil ODS‐3, 2.1 × 33 mm, ID. 3 μm, GL Sciences, Tokyo, Japan) held at 40°C. The mobile solvents used were water with 10 mM ammonium acetate (pH 4.0, A) and methanol (B) pumped at a flow rate of 0.4 mL/min. The following gradient was employed: 10%–90% B (0–0.5 min), 90% B (0.5–2.5 min), and 10% B (2.5–4 min). The eluent was monitored using a triple quadrupole mass spectrometer (API 4000, AB Sciex, Framingham, MA, USA) incorporating an electrospray ion source (ESI) operating in the multiple reaction monitoring mode. The ESI source was operated in negative ionization mode at 600°C with a spray voltage of −4.5 kV. The curtain gas (nitrogen), collision gas (nitrogen), nebulizer gas (whole air), and drying gas (whole air) were set at 40, 5, 50, and 70 psi, respectively. […] Artepillin C and drupanin were diluted in 50% methanol to concentrations of 1.6, 3.2, 8, 40, 200, 1000, and 2000 nM and were used as external standards. Sulfaphenazole (0.2 μM) was used as an internal standard.
The apparent permeability coefficients (Papp) for both directions, from the apical side to the basolateral side (A to B) and from the basolateral side to the apical side (B to A) in the cell monolayer, were calculated using the following equation: (1) Papp=dQ/dt/A×C0 where dQ/dt is the permeation rate (nmol/s), A is the membrane area (cm^2), and C0 is the initial concentration of the compound in the donor compartment (nM). The efflux ratios (ER) in the B‐to‐A and A‐to‐B directions were determined using the following equation: (2) ER=PappBtoA/PappAtoB
Net flux ratios were calculated by dividing the ER obtained from MDCK II‐MDR1 (or BCRP) cells by that obtained from the parent MDCK II cells.

[2] = Clinical trial: plasma concentration and AUC of cinnamic acid derivatives after ingestion of BGP alone or BGP plus herbal extract mixture; type: in vivo; settings: humans, BGP and herbal extracts co-administered; for AUC: plasma 0–24 h, after enzymatic deconjugation, mean ± SD, n = 6; for fold increase of AUC versus BGP administered alone: 0–24 h
Method: Six volunteers (three males and three females) completely understood the study protocol and consented to participate in the research. The following exclusion criteria were used for shortlisting participants: past or present medical history (asthma, significant allergies, heart, liver, kidney, and urinary tract disease); prescribed medication; pregnancy; smoking (>20 cigarettes/day); alcohol consumption (>500 mL/day of beer); use of dietary supplements and healthy foods; and participation in other clinical trials. The participants were instructed to refrain from consuming propolis and propolis‐containing foods and beverages during the study period and 1 week prior to the start of the study. After a 12‐h fast, the participants were given a test food comprising the encapsulated BGP powder or a mixture of the BGP powder and herbal extracts in two experimental periods separated by 1 week. […] The collected samples were centrifuged at 1500 g for 3 min at 23 ± 2°C to separate the plasma, which was subsequently preserved at −80°C until further sample preparation.
Briefly, 50 μL of plasma was treated with a sulfatase/β‐glucuronidase solution (sulfatase 15 units/sample) in 100 mM sodium acetate and 5 mM ascorbate at 37°C for 1 h. Following the incubation, 850 μL of methanol was added to the samples to stop the deconjugation reaction, after which centrifugation was performed at 2000 g for 10 min at 23 ± 2°C. The supernatant was evaporated under nitrogen gas and then reconstituted in a fixed volume of methanol. The samples were filtered through a 0.22 μm PTFE membrane and then analyzed by LC–MS/MS.
Briefly, 5 μL of the sample was injected into a reversed‐phase column (Acquity UPLC BEH C18, 2.1 × 100 mm, ID. 1.7 μm; Waters, Milford, MA, USA) held at 30°C. The elution was performed using solvent A (0.1% formic acid) and solvent B (acetonitrile) at a flow rate of 0.3 mL/min. The gradient profiles were as follows: 5% B (0–2 min), 5–95% B (2–22 min), 95% B (22–25 min), and 5% B (25–30 min). Tandem mass spectrometry (MS/MS) was conducted using an ion trap mass spectrometer with a heated electrospray ion source (HESI) in both positive and negative ionization modes (scan range m/z 70–1000). […] External standard curves for cinnamic acid derivatives were generated using eight concentrations of authentic standard solutions (1, 5, 10, 50, 100, 250, 500, and 1000 ng/mL).
Quantification of cinnamic acid derivatives in the plasma was performed using the Trace Finder software version 4.1 (Thermo Scientific). The plasma concentration versus time data for the analytes obtained from each human and rat were entered into a Microsoft Excel spreadsheet. The area under the plasma concentration–time curve (AUC) was calculated using the linear trapezoidal rule, extending to the last sampling point.

[3] = 10 μM, 120 min, mean ± SE, n = 2

| AUC ([2]; both sexes, human, oral, read-out: AUC) [ng·h/mL] | SMILES | Net flux ratio [1] | fold increase of AUC versus BGP administered alone [2] [fold] | Papp MDCK II‐MDR1 A to B [1, 3] | Papp MDCK II‐MDR1 B to A [1, 3] | Flux ratio (MDCK II‐MDR1) (efflux ratio, ER) ([1]; 10 μM, Papp B to A / Papp A to B) | AUC [2] [ng·h/mL] |
| --- | --- | --- | --- | --- | --- | --- | --- |
| 446 ± 144 | CC(C)=CCc1cc(/C=C/C(=O)O)ccc1O [drupanin] | 0.9 | 1.5 |  |  |  |  |
|  | CC(C)=CCc1cc(/C=C/C(=O)O)cc(CC=C(C)C)c1O [artepillin C] | 1.1 | 1.7 | 13.3 ± 0.7 10^−6 cm/s | 11.4 ± 0.8 10^−6 cm/s | 0.9 | 312.9 ± 91.4 |
